Measured values taken from PubChem BioAssay (NCI).
Where “and” joins values, the source holds several entries; their conditions need not be identical. Equal values may be shown once.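 Protocol summary: plate cells (96-well), add compound at 5 concentrations, incubate 48 h, interpolate endpoints linearly. Abbreviation: GI50, concentration required for 50% inhibition of growth. TGI: total growth inhibition.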

How the values were obtained:
Experiment in all cases: growth of human tumour cells (NCI), 48 h
MCF7 breast = test system: MCF7 breast
OVCAR-4 ovarian = test system: OVCAR-4 ovarian
COLO 205 colon = test system: COLO 205 colon
NCI-H460 lung = test system: NCI-H460 lung
DU-145 prostate = test system: DU-145 prostate
BT-549 breast = test system: BT-549 breast
TK-10 renal = test system: TK-10 renal
T-47D breast = test system: T-47D breast
SK-MEL-2 melanoma = test system: SK-MEL-2 melanoma
OVCAR-3 ovarian = test system: OVCAR-3 ovarian

SMILES: O=C1CSC(=S)N1Cc1cccnc1
- GI50 (MCF7 breast): 2430 nM
- TGI (MCF7 breast): 12800 nM
- GI50 (OVCAR-4 ovarian): 7780 nM
- TGI (OVCAR-4 ovarian): 25400 nM
- GI50 (COLO 205 colon): 5590 nM
- TGI (COLO 205 colon): 21100 nM
- GI50 (NCI-H460 lung): 18400 nM
- TGI (NCI-H460 lung): 48700 nM
- GI50 (DU-145 prostate): 2400 nM
- TGI (DU-145 prostate): 5710 nM
- GI50 (BT-549 breast): 18600 nM
- TGI (BT-549 breast): 44300 nM
- GI50 (TK-10 renal): 2840 nM
- TGI (TK-10 renal): 7140 nM
- GI50 (T-47D breast): 11100 nM
- TGI (T-47D breast): 32700 nM
- GI50 (SK-MEL-2 melanoma): 4210 nM
- TGI (SK-MEL-2 melanoma): 16500 nM
- GI50 (OVCAR-3 ovarian): 3390 nM
- TGI (OVCAR-3 ovarian): 12100 nM

SMILES: O=C1/C(=C/c2ccc([N+](=O)[O-])o2)Oc2ccccc21
- GI50 (MCF7 breast): 827 nM
- TGI (MCF7 breast): 3110 nM
- GI50 (OVCAR-4 ovarian): 1610 nM
- TGI (OVCAR-4 ovarian): 3650 nM
- GI50 (COLO 205 colon): 1350 nM
- TGI (COLO 205 colon): 2910 nM
- GI50 (NCI-H460 lung): 1910 nM
- TGI (NCI-H460 lung): 4090 nM
- GI50 (DU-145 prostate): 1910 nM
- TGI (DU-145 prostate): 3730 nM
- GI50 (BT-549 breast): 1760 nM
- TGI (BT-549 breast): 3740 nM
- GI50 (TK-10 renal): 1590 nM
- TGI (TK-10 renal): 3020 nM
- GI50 (T-47D breast): 1240 nM
- TGI (T-47D breast): 4340 nM
- GI50 (SK-MEL-2 melanoma): 1910 nM
- TGI (SK-MEL-2 melanoma): 3730 nM
- GI50 (OVCAR-3 ovarian): 1230 nM
- TGI (OVCAR-3 ovarian): 2620 nM

SMILES: CC(C)=CCc1ccc(O)c(=O)cc1C(C)C
- GI50 (MCF7 breast): 501 nM
- TGI (MCF7 breast): > 100000 nM
- GI50 (OVCAR-4 ovarian): 532 nM
- TGI (OVCAR-4 ovarian): > 100000 nM
- GI50 (COLO 205 colon): 3270 nM
- TGI (COLO 205 colon): > 100000 nM
- GI50 (NCI-H460 lung): 420 nM
- TGI (NCI-H460 lung): > 33100 nM
- GI50 (DU-145 prostate): 889 nM
- TGI (DU-145 prostate): > 100000 nM
- GI50 (BT-549 breast): 1050 nM
- TGI (BT-549 breast): 36400 nM
- GI50 (TK-10 renal): 746 nM
- TGI (TK-10 renal): > 100000 nM
- GI50 (T-47D breast): 3290 nM
- TGI (T-47D breast): > 100000 nM
- GI50 (SK-MEL-2 melanoma): 2060 nM
- TGI (SK-MEL-2 melanoma): > 85700 nM
- GI50 (OVCAR-3 ovarian): 654 nM
- TGI (OVCAR-3 ovarian): > 83400 nM

SMILES: COc1ccc2c(c1)C(=O)/C(=C/c1ccc([N+](=O)[O-])s1)O2
- GI50 (MCF7 breast): 344 nM
- TGI (MCF7 breast): > 100000 nM
- GI50 (OVCAR-4 ovarian): 340 nM
- TGI (OVCAR-4 ovarian): 1140 nM
- GI50 (COLO 205 colon): 490 nM
- TGI (COLO 205 colon): 1680 nM
- GI50 (NCI-H460 lung): 411 nM
- TGI (NCI-H460 lung): 1640 nM
- GI50 (DU-145 prostate): 1790 nM
- TGI (DU-145 prostate): > 100000 nM
- GI50 (BT-549 breast): 246 nM
- TGI (BT-549 breast): 617 nM
- GI50 (TK-10 renal): 767 nM
- GI50 (T-47D breast): 248 nM
- TGI (T-47D breast): 728 nM
- GI50 (SK-MEL-2 melanoma): 325 nM
- TGI (SK-MEL-2 melanoma): 875 nM
- GI50 (OVCAR-3 ovarian): 252 nM
- TGI (OVCAR-3 ovarian): 548 nM

SMILES: O=C(N/N=c1/ccoc2cccnc12)N1CCN(c2ncccn2)CC1
- GI50 (MCF7 breast): < 10 nM
- TGI (MCF7 breast): 11900 nM
- GI50 (OVCAR-4 ovarian): < 12.9 nM
- TGI (OVCAR-4 ovarian): 4650 nM
- GI50 (COLO 205 colon): < 10 nM
- TGI (COLO 205 colon): 7570 nM
- GI50 (NCI-H460 lung): 89.6 nM
- TGI (NCI-H460 lung): 11100 nM
- GI50 (DU-145 prostate): 796 nM
- TGI (DU-145 prostate): 13100 nM
- GI50 (BT-549 breast): 321 nM
- TGI (BT-549 breast): 3370 nM
- GI50 (TK-10 renal): 992 nM
- TGI (TK-10 renal): 8080 nM
- GI50 (T-47D breast): < 10 nM
- TGI (T-47D breast): 7850 nM
- GI50 (SK-MEL-2 melanoma): 1110 nM
- TGI (SK-MEL-2 melanoma): 8420 nM
- GI50 (OVCAR-3 ovarian): < 10 nM
- TGI (OVCAR-3 ovarian): 4460 nM

SMILES: c1ccc2c(Nc3ccc(Oc4ccc(Nc5c6ccccc6nc6ccccc56)cc4)cc3)c3ccccc3nc2c1
- GI50 (MCF7 breast): 176 nM
- GI50 (OVCAR-4 ovarian): 278 nM
- TGI (OVCAR-4 ovarian): 637 nM and 145 nM
- GI50 (COLO 205 colon): 1520 nM
- TGI (COLO 205 colon): 3650 nM and 2450 nM
- GI50 (NCI-H460 lung): 346 nM
- TGI (NCI-H460 lung): 1380 nM and 5930 nM
- GI50 (DU-145 prostate): 403 nM
- TGI (DU-145 prostate): 1250 nM and 929 nM
- GI50 (BT-549 breast): 2070 nM and 1870 nM
- TGI (BT-549 breast): 4540 nM and 4400 nM
- TGI (TK-10 renal): 970 nM
- GI50 (T-47D breast): 221 nM
- TGI (T-47D breast): 510 nM and 2740 nM
- GI50 (SK-MEL-2 melanoma): 3250 nM
- TGI (SK-MEL-2 melanoma): 3780 nM
- TGI (OVCAR-3 ovarian): 366 nM
